Measurements reported in ChEMBL document CHEMBL5233201, “Progress in mechanistically novel treatments for schizophrenia” (RSC Med Chem, 2021).

Molecular target: High affinity cGMP-specific 3',5'-cyclic phosphodiesterase 9A (Homo sapiens, UniProt O76083)
Experiment: Inhibition of human PDE9A expressed in Escherichia coli DH10 by scintillation proximity assay

Chain of High affinity cGMP-specific 3',5'-cyclic phosphodiesterase 9A (O76083 whole entry): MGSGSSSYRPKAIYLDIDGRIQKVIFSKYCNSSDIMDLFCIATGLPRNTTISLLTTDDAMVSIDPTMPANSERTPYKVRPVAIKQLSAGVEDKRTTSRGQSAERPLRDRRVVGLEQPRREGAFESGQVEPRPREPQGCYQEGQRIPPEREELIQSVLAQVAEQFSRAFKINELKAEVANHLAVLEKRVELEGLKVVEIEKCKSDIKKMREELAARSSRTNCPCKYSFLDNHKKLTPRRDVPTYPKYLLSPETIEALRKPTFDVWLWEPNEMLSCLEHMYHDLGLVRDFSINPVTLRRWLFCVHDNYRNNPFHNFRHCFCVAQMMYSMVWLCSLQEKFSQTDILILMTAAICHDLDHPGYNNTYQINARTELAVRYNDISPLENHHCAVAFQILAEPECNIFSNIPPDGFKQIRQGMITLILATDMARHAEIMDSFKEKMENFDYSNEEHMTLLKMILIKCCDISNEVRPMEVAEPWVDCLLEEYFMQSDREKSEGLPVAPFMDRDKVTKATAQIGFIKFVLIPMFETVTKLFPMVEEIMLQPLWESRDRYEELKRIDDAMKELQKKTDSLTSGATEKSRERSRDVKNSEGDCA

O=c1[nH]c(Cc2ccccn2)nc2c1cnn2C1CCOCC1 [OSORESNONTRINE]
IC50: 65 nM
